In patent US7713994B2 (Wyeth LLC, priority 2005, dated 2010):

Experiments:
cyclin E/CDK2 enzyme = biological target: T1, cyclin E/CDK2 enzyme (Homo sapiens, UniProt P24941); assay: CDK2 ELISA kinase assay (phospho-Rb ser 795 detection); assay type: biochemical; settings: In Vitro Enzyme Assays, read-out: CDK2 IC50
T1 construct: made in house; host or cells: Sf9 insect cells, recombinant baculovirus
How it was run: (§1)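 GST-Rb C-terminal fragment coated on wells; kinase reaction: 200 μM ATP, 0.5 mg/ml BSA, HEPES pH 7.5, 10 mM MgCl2, baculovirus/Sf9 cyclin-CDK, 30° C, 1 h. Readout anti-phospho-Rb Ser795, HRP, TMB, A450. Test compound 10 ug/ml final.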

HCT-116 = assay: Cytotoxicity assay (SRB), HCT-116; assay type: cell-based; settings: Homo sapiens, HCT-116, 72 h, HCT116 cells, SRB, three days; read-out: In Vitro Cellular Activity IC50 HCT116
How it was run: (§2)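 Protein staining with sulforhodamine B after cold TCA fixation served as the survival endpoint (A540, relative to untreated cells). Before staining, cells were incubated with compound at 37 °C, 7% CO2 for 3 days, or 6 days for BT474.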

cyclin D1/cdk 4 enzyme = biological target: T2, cyclin D1/cdk 4 enzyme (Homo sapiens, UniProt P11802); assay: CDK4 ELISA kinase assay (phospho-Rb ser 795 detection); assay type: biochemical; settings: In Vitro Enzyme Assays, 200 μM ATP, read-out: CDK4 IC50
T2 construct: made in house; host or cells: Sf9 insect cells, recombinant baculovirus
T2 sequence (P11802 whole entry, species assumed): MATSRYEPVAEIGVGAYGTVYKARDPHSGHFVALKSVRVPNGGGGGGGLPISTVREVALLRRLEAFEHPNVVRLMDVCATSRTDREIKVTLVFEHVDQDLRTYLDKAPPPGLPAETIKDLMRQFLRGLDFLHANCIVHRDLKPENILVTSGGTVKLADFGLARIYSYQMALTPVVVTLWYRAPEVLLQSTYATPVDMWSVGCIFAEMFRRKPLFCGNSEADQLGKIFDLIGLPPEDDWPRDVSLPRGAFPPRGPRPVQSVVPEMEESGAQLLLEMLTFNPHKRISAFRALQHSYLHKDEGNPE
T2 sequence (P24385 whole entry partner, species assumed): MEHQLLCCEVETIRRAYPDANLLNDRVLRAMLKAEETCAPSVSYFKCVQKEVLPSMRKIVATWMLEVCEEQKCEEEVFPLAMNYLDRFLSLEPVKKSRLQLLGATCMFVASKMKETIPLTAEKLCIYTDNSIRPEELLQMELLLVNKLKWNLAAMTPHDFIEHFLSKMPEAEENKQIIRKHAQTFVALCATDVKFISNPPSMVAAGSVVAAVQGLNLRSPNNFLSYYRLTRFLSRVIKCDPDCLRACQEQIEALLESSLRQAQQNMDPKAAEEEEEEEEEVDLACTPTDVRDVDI
How it was run: as §1

BT474 = assay: Cytotoxicity assay (SRB), BT474; assay type: cell-based; settings: Homo sapiens, BT-474, 144 h, BT474 cells, SRB, 6 days; read-out: In Vitro Cellular Activity IC50 BT474
How it was run: as §2

SK-UT-1B = assay: In Vitro Cellular Activity (Table III), SK-UT-1B; assay type: cell-based; settings: Homo sapiens, Skut1B; SK-UT-1B cells
MCF-7 = assay: Cytotoxicity assay (SRB), MCF-7; assay type: cell-based; settings: Homo sapiens, MCF7, 72 h, MCF-7 cells, SRB, three days; read-out: In Vitro Cellular Activity IC50 MCF-7
How it was run: as §2

LoVo = assay: Cytotoxicity assay (SRB), LoVo; assay type: cell-based; settings: Homo sapiens, LoVo, 72 h, LoVo cells, SRB, three days; read-out: In Vitro Cellular Activity IC50 LOVO
How it was run: as §2

cyclin B/CDK1 enzyme = biological target: T3, cyclin B/CDK1 enzyme (Homo sapiens, UniProt P06493); assay: CDK1 ELISA kinase assay (phospho-Rb ser 795 detection); assay type: biochemical; settings: In Vitro Enzyme Assays, read-out: CDK1 IC50
T3 construct: purchased New England BioLabs; host or cells: Sf9 insect cells, recombinant baculovirus
T3 sequence (P06493 whole entry): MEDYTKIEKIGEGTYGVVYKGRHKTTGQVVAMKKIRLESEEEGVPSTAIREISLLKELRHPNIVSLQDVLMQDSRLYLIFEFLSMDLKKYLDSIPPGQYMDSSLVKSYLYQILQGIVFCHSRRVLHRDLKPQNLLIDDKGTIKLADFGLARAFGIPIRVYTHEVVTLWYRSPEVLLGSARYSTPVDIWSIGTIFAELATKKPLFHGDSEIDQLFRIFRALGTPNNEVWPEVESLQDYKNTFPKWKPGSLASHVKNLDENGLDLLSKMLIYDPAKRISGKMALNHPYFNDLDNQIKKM
T3 sequence (P14635 whole entry partner): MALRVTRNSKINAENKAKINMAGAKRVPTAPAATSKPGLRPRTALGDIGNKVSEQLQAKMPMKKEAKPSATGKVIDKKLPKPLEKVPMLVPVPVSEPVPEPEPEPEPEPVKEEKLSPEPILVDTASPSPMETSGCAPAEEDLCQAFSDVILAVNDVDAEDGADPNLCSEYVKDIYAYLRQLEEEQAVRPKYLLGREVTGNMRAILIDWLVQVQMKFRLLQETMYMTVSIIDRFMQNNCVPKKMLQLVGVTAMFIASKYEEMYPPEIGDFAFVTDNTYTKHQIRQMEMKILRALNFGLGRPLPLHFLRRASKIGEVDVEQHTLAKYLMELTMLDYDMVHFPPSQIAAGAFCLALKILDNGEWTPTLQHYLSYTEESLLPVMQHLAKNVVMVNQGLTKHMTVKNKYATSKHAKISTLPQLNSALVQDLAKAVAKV
How it was run: as §1

Row | SMILES | IC50 (cyclin E/CDK2 enzyme) [µM] | IC50 (HCT-116) [µM] | IC50 (cyclin D1/cdk 4 enzyme) [µM] | melting point | IC50 (BT474) [µM] | IC50 (SK-UT-1B) [µM] | IC50 (MCF-7) [µM] | IC50 (LoVo) [µM] | IC50 (cyclin B/CDK1 enzyme) [µM]
1 | COc1ccc(N/C=C2\C(=O)NC(=O)c3ccccc32)cc1 [Example 1, (4Z)-4-{[(4-Methoxyphenyl)amino]methylene}isoquinoline-1,3(2H,4H)-dione] | 18.9 | 29 | 38 | 150 to 151 °C | 43 | > 36 | 19 | 30 | > 36
2 | CN1CCN(Cc2ccc(N/C=C3\C(=O)NC(=O)c4ccccc43)cc2)CC1 [Example 20] | – | 10 | 6.7 | 231 to 232 °C | – | 18.5 | 14 | – | > 26
3 | O=C1NC(=O)c2ccccc2/C1=C/Nc1ccc(CN2CCC(O)CC2)cc1 [Example 23, (4Z)-4-[({4-[(4-Hydroxypiperidin-1-yl)methyl]phenyl}amino)methylene]isoquinolin-1,3(2H,4H)-dione] | 26 | 10.5 | 5.15 | 224 to 225 °C | – | 16.3 | 8.7 | – | > 26
4 | O=C1NC(=O)c2ccccc2/C1=C/Nc1ccc(CN2CCCCCC2)cc1 [Example 26, (4Z)-4-({[4-(Azepan-1-ylmethyl)phenyl]amino}methylene)isoquinoline-1,3(2H,4H)-dione] | > 27 | 7.3 | 4.3 | 198 to 200 °C | – | 6.1 | 8 | – | > 27
5 | O=C1NC(=O)c2ccccc2/C1=C/Nc1ccc2ncccc2c1 [Example 8, (4Z)-4-[(Quinolin-6-ylamino)methylene]isoquinoline-1,3(2H,4H)-dione] | > 32 | > 50 | > 50 | 277 to 278 °C | > 50 | 8.9 | > 50 | > 50 | > 32
6 | COCC1CCCN1Cc1ccc(N/C=C2\C(=O)NC(=O)c3ccc(Br)cc32)cc1 (stereo in doubt) [Example 39] | > 50 | 7.5 | 1.1 | 129 to 130 °C | 7.9 | 10 | 6.3 | 9.4 | > 50
7 | O=C1NC(=O)c2ccccc2/C1=C/Nc1ccc(CN2CCCCC2)cc1 [Example 13, (4Z)-4-({[4-(Piperidin-1-ylmethyl)phenyl]amino}methylene)isoquinoline-1,3(2H,4H)-dione] | – | 8.6 | 7.9 | 185 to 186 °C | 27 | 11.3 | 7.3 | 15 | > 28
8 | O=C1NC(=O)c2ccccc2/C1=C/Nc1ccc(CCN2CCCC2)cc1 [Example 5, (4Z)-4-({[4-(2-Pyrrolidin-1-ylethyl)phenyl]amino}methylene)isoquinoline-1,3(2H,4H)-dione] | > 28 | 10.8 | 10.2 | 224 to 225 °C | – | 10.2 | 8 | – | > 28
9 | O=C1NC(=O)c2ccccc2/C1=C\c1ccc(O)cc1 [Example 11, (4E)-4-(4-hydroxybenzylidene)isoquinoline-1,3(2H,4H)-dione] | > 37 | 2.3 | > 50 | 242 to 243 °C | > 50 | > 36 | 18 | 6.8 | > 37
10 | O=C1NC(=O)c2ccc(Br)cc2/C1=C/Nc1ccc(CN2CCCCC2)cc1 [Example 24, (4Z)-6-Bromo-4-{[(4-piperidin-1-ylmethyl)phenyl]amino}methyleneisoquinoline-1,3(2H,4H)-dione] | – | 5 | – | 222 to 225 °C | 4.8 | 7.8 | 3.1 | 6 | > 50
11 | CN1CCN(c2ccc(N/C=C3\C(=O)NCc4ccccc43)cc2)CC1 [Example 2, (4Z)-4-({[4-(4-Methyl-1-piperazinyl)phenyl]amino}methylene)-1,4-dihydro-3(2H)-isoquinolinone] | > 29 | 7.4 | 12.1 | 186 to 187 °C (dec.) | 21.5 | 4.3 | 6.7 | 7.8 | > 29
12 | CN(C(=O)CN1CCCCC1)c1ccc(N/C=C2\C(=O)NC(=O)c3ccccc32)cc1 [Example 29, N-(4-{[(Z)-(1,3-Dioxo-2,3-dihydroisoquinolin-4(1H)-ylidene)methyl]amino}phenyl)-1,3(2H,4H)-dione N-Methyl-2-piperidin-1-ylacetamide] | > 23 | 21 | 15 | 223 to 224 °C | 21 | 17 | 12 | 19 | > 23
13 | COC[C@H]1CCCN1Cc1ccc(N/C=C2\C(=O)NC(=O)c3ccc(Br)cc32)cc1 [Example 38] | > 50 | 7.3 | 1.1 | 129 to 130 °C | 2.8 | 11 | 3.7 | 7.9 | > 50
14 | O=C1NC(=O)c2ccccc2/C1=C/Nc1cccc(CN2CCCCC2)c1 [Example 16, (4Z)-4-({[3-(Piperidin-1-ylmethyl)phenyl]amino}methylene)isoquinoline-1,3(2H,4H)-dione] | – | 14 | – | 173 to 174 °C | 45 | 18.5 | 19 | 14 | –
15 | O=C1NC(=O)c2ccccc2/C1=C/Nc1cccc(CN2CCCCCC2)c1 [Example 17, (4Z)-4-({[3-(Azepan-1-ylmethyl)phenyl]amino}methylene)isoquinoline-1,3(2H,4H)-dione] | – | 14 | – | 116 to 117 °C | 30 | 16 | 20 | 19 | –
16 | Cn1ccnc1Sc1ccc(N/C=C2\C(=O)NC(=O)c3ccccc32)cc1Cl [Example 14, (4Z-4-[{3-Chloro-4[(1-methyl-1H-imidazole-2-uy)thio]phenyl}amino)methylene]isoquinoline-1,3(2H,4H)-dione] | – | 8.7 | – | 264 to 265 °C | 38 | 18.4 | > 50 | > 50 | –
17 | CC(C)(C)OC(=O)N1CCN(Cc2ccc(N/C=C3\C(=O)NC(=O)c4ccccc43)cc2)CC1 [Example 34] | – | 14 | – | 219 to 220 °C | 25 | 15 | 38 | > 50 | –
